The experiment has as its system 556581-035-R-J1-PDC complex spheroid growth. Description: Anticancer human tumor 556581-035-R-J1-PDC patient-derived ovarian carcinoma cell line growth inhibition [AhR]. Conditions: for viability, T/C: stronger effect = lower value. The method in brief: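 Agents were dosed in half-log steps down from roughly clinical Cmax, or from 10 microM where Cmax was unknown, alone and with AhR antagonists. Read-out: percent test/control growth of tumor spheroids containing HUVEC and MSC stromal cells.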

The mark [1] stands for this setting: curve of first compound, second compound 0.1 µM.
[2] abbreviates: curve of first compound, second compound 0.316 µM.
Setting [3] is: curve of first compound, second compound 1 µM.
[4] abbreviates: curve of first compound, second compound 3.16 µM.
Where [5] appears, read: curve of first compound, second compound 10 µM.
[6] abbreviates: second compound 0.1 µM, first compound 0.0316 µM.
Where [7] appears, read: second compound 0.1 µM, first compound 0.1 µM.
Where [8] appears, read: second compound 0.1 µM, first compound 0.316 µM.
The mark [9] stands for this setting: second compound 0.1 µM, first compound 1 µM.
[10] abbreviates: second compound 0.316 µM, first compound 0.0316 µM.
The mark [11] stands for this setting: second compound 0.316 µM, first compound 0.1 µM.
Setting [12] is: second compound 0.316 µM, first compound 0.316 µM.
The mark [13] stands for this setting: second compound 0.316 µM, first compound 1 µM.
The mark [14] stands for this setting: second compound 1 µM, first compound 0.0316 µM.
Setting [15] is: second compound 1 µM, first compound 0.1 µM.
Where [16] appears, read: second compound 1 µM, first compound 0.316 µM.
[17] abbreviates: second compound 1 µM, first compound 1 µM.
The mark [18] stands for this setting: second compound 3.16 µM, first compound 0.0316 µM.
[19] abbreviates: second compound 3.16 µM, first compound 0.1 µM.
Where [20] appears, read: second compound 3.16 µM, first compound 0.316 µM.
The mark [21] stands for this setting: second compound 3.16 µM, first compound 1 µM.
[22] abbreviates: second compound 10 µM, first compound 0.0316 µM.
[23] abbreviates: second compound 10 µM, first compound 0.1 µM.
The mark [24] stands for this setting: second compound 10 µM, first compound 0.316 µM.
The mark [25] stands for this setting: second compound 10 µM, first compound 1 µM.
Setting [26] is: second compound 0.1 µM, first compound 0.00316 µM.
Where [27] appears, read: second compound 0.1 µM, first compound 0.01 µM.
The mark [28] stands for this setting: second compound 0.316 µM, first compound 0.00316 µM.
Where [29] appears, read: second compound 0.316 µM, first compound 0.01 µM.
The mark [30] stands for this setting: second compound 1 µM, first compound 0.00316 µM.
Setting [31] is: second compound 1 µM, first compound 0.01 µM.
The mark [32] stands for this setting: second compound 3.16 µM, first compound 0.00316 µM.
The mark [33] stands for this setting: second compound 3.16 µM, first compound 0.01 µM.
[34] abbreviates: second compound 10 µM, first compound 0.00316 µM.
[35] abbreviates: second compound 10 µM, first compound 0.01 µM.

“And” between values parts separate entries of the source, which are not always exact repeats. Identical values can stand only once. A value given as a limit tells only on which side of the number the result lay.
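For viability, T/C in this document: compound exposure lasted 7 days; 100% = DMSO vehicle control growth.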

As a reminder, the IC50 is the concentration that gives 50% inhibition. Usually viability, T/C stands for the result in the treated group divided by that in the control group, in per cent. With `COc1cccc2c1C(=O)c1c(O)c3c(c(O)c1C2=O)CC(O)(C(=O)CO)CC3OC1CC(N)C(O)C(C)O1` (stereo unspecified) + Cc1ccccc1N=Nc1ccc(NC(=O)c2ccnn2C)c(C)c1, the IC50 runs as follows: under setting [1], 423 nM; under setting [2], 416 nM; under setting [3], 519 nM; under setting [4], 489 nM; under setting [5], 493 nM. The viability, T/C was 83.7% under setting [6]; 78% under setting [7]; 60.2% under setting [8]; 20.7% under setting [9]; 2.13% (second compound 0.1 µM, first compound 3.16 µM); 2.2% (second compound 0.1 µM, first compound 10 µM). Besides, the viability, T/C is 82.7% under setting [10]; 77.9% under setting [11]; 59.9% under setting [12]; 19.2% under setting [13]; 3.1% (second compound 0.316 µM, first compound 3.16 µM); 3.13% (second compound 0.316 µM, first compound 10 µM). The viability, T/C was 85.7% under setting [14]; 93.8% under setting [15]; 70.9% under setting [16]; 21.4% under setting [17]; 3.42% (second compound 1 µM, first compound 3.16 µM); 2.49% (second compound 1 µM, first compound 10 µM). Also, the viability, T/C runs as follows: under setting [18], 83.2%; under setting [19], 79.9%; under setting [20], 68.3%; under setting [21], 20.1%; (second compound 3.16 µM, first compound 3.16 µM) 4.16%; (second compound 3.16 µM, first compound 10 µM) 1.64%. In addition, the viability, T/C under setting [22] was 79.2%; the viability, T/C under setting [23] was 85.7%; the viability, T/C under setting [24] is 70.2%; the viability, T/C under setting [25] is 17.2%; the viability, T/C (second compound 10 µM, first compound 3.16 µM) is 2.04%; the viability, T/C (second compound 10 µM, first compound 10 µM) is 2.28%.
`CC1COCCN1c1cc(-c2ccnn2C)c2ccnc(-c3ccn[nH]3)c2n1` (stereo unspecified) + Cc1ccccc1N=Nc1ccc(NC(=O)c2ccnn2C)c(C)c1: the IC50 is 894 nM under setting [1]; over 1000 nM under setting [2]; over 1000 nM under setting [3]; 752 nM under setting [4]; 883 nM under setting [5]. Further, the viability, T/C under setting [26] is 104%; the viability, T/C under setting [27] is 103%; the viability, T/C under setting [6] is 101%; the viability, T/C under setting [7] was 84.8%; the viability, T/C under setting [8] is 61.5%; the viability, T/C under setting [9] is 48.6%. Besides, the viability, T/C is 102% under setting [28]; 119% under setting [29]; 101% under setting [10]; 76.8% under setting [11]; 63.9% under setting [12]; 51.8% under setting [13]. The viability, T/C runs as follows: under setting [30], 99.6%; under setting [31], 108%; under setting [14], 99.5%; under setting [15], 80%; under setting [16], 62.6%; under setting [17], 54.9%. For the same molecule, the viability, T/C was 105% under setting [32]; 103% under setting [33]; 94.8% under setting [18]; 72.6% under setting [19]; 63.8% under setting [20]; 45.4% under setting [21]. In addition, the viability, T/C by setting is: under setting [34], 88.9%; under setting [35], 104%; under setting [22], 85.3%; under setting [23], 73.3%; under setting [24], 61%; under setting [25], 47.9%.
As for `O=C(C=Cc1cccc(S(=O)(=O)Nc2ccccc2)c1)NO`, the viability, T/C is, setting by setting: (compound 0.0316 µM) 104% and 98.7% and 101%; (compound 0.1 µM) 105% and 99.7% and 84.2%; (compound 0.316 µM) 85.4% and 76.4% and 76.7%; (compound 1 µM) 54.8% and 58.9% and 56.1%; (compound 3.16 µM) 25.9% and 28.1% and 21.8%; (compound 10 µM) 3.85% and 5.28% and 4.17%. For the same molecule, the IC50 (curve of compound) is 1250 nM and 1330 nM and 1110 nM.
`CC1COCCN1c1cc(-c2ccnn2C)c2ccnc(-c3ccn[nH]3)c2n1` (stereo unspecified) + CC(CO)NC(=O)c1cc(-c2ccc(Cl)cc2)nn(-c2cnn(C)c2)c1=O: the IC50 was found to be 474 nM under setting [1]; 690 nM under setting [2]; 944 nM under setting [3]; 398 nM under setting [4]; 295 nM under setting [5]. Further, the viability, T/C is, setting by setting: under setting [26], 106%; under setting [27], 109%; under setting [6], 108%; under setting [7], 79.7%; under setting [8], 52.4%; under setting [9], 47.1%. Besides, the viability, T/C is 107% under setting [28]; 114% under setting [29]; 104% under setting [10]; 89.3% under setting [11]; 56.3% under setting [12]; 47% under setting [13]. The viability, T/C is 118% under setting [30]; 120% under setting [31]; 106% under setting [14]; 84.4% under setting [15]; 64.6% under setting [16]; 48.5% under setting [17]. Also, the viability, T/C is 114% under setting [32]; 130% under setting [33]; 114% under setting [18]; 80.7% under setting [19]; 53.6% under setting [20]; 43.2% under setting [21]. Besides, the viability, T/C was 107% under setting [34]; 119% under setting [35]; 103% under setting [22]; 68.6% under setting [23]; 50.5% under setting [24]; 44.8% under setting [25].
As to `CC[C@@]1(O)C(=O)OCc2c1cc1n(c2=O)Cc2cc3c(CN(C)C)c(O)ccc3nc2-1`, the viability, T/C by setting is: (compound 0.000316 µM) 101% and 94.3% and 103%; (compound 0.001 µM) 103% and 90.5% and 99.5%; (compound 0.00316 µM) 91.3% and 91.8% and 95.9%; (compound 0.01 µM) 87.9% and 84.7% and 81.2%; (compound 0.0316 µM) 77.2% and 66.1% and 69.9%; (compound 0.1 µM) 54.1% and 51.6% and 47%. The half-inhibitory concentration (IC50) (curve of compound) was > 100 nM and 86.9 nM.
Regarding `CC(C)c1c(-c2ccccc2)nc2c(C#N)c[nH]n2c1=O`, the viability, T/C is 102% and 99.4% and 99.2% (compound 0.0316 µM); 105% and 102% and 98.3% (compound 0.1 µM); 92.7% and 106% and 104% (compound 0.316 µM); 101% and 106% and 99% (compound 1 µM); 95.7% and 110% and 93.8% (compound 3.16 µM); 86.8% and 94.4% and 83.1% (compound 10 µM). For the same molecule, for the setting “curve of compound”, the IC50 was over 10000 nM.

Values taken from PubChem BioAssay AID1918999 (Molecular Pharmacology Branch, DTP, NCI, 2023).
